Values belong to the molecule of their own block, whether it stands above or below them. Where a SMILES comes first, the peptide text is derived from it. [ ]: non-standard residue; d: D form. The star is where a group is joined. Nle = CCCC[C@H](N)C(=O)O; Cbz = O=C(OCc1ccccc1)*; CH2F = FC*
Experiments:
[1] = tested on: HeLa cells; test: Apo-2L-induced apoptosis in HeLa cells by FACS and its inhibition by soluble Apo-2 ECD; type: cell-based, human
Method: Soluble Apo-2L ([…], prepared as described in Pitti et al., supra) was pre-incubated for 1 hour at room temperature with PBS buffer or affinity-purified Apo-2 ECD (5 μg/ml) together with anti-Flag antibody (Sigma) (1 μg/ml) and added to HeLa cells. After a 5 hour incubation, the cells were analyzed for apoptosis by FACS (as above) (FIG. 11D).

[2] = tested on: NF-κB; test: NF-κB activity in HeLa cells treated with soluble ligand; type: cell-based, human; details: 1 μg/ml, FIG. 12B
[3] = tested on: HeLa cells; test: Apoptosis induction by Apo-2 in transfected HeLa cells, FACS analysis of phosphatydilserine exposure; type: cell-based, human; details: inhibitor added at 200 μM at the time of transfection, FIG. 11C
From the text: (§1) Because death domains can function as oligomerization interfaces, over-expression of receptors that contain death domains may lead to activation of signaling in the absence of ligand [Frazer et al., supra, Nagata et al., supra]. To determine whether Apo-2 was capable of inducing cell death, human 293 cells or HeLa cells (ATCC CCL 2.2) were transiently transfected by calcium phosphate precipitation (293 cells) or electroporation (HeLa cells) with a pRK5 vector or pRK5-based plasmids encoding Apo-2 and/or CrmA. When applicable, the total amount of plasmid DNA was adjusted by adding vector DNA. Apoptosis was assessed 24 hours after transfection by morphology (FIG. 11A); DNA fragmentation (FIG. 11B); or by FACS analysis of phosphatydilserine exposure (FIG. 11C) as described in Marsters et al., Curr. Biol., 6:1669 (1996).
For samples assayed by FACS, the HeLa cells were co-transfected with pRK5-CD4 as a marker for transfection and apoptosis was determined in CD4-expressing cells; FADD was co-transfected with the Apo-2 plasmid; the data are means±SEM of at least three experiments, as described in Marsters et al., Curr. Biol., 6:1669 (1996). The caspase inhibitors, DEVD-fmk (Enzyme Systems) or z-VAD-fmk (Research Biochemicals Intl.) were added at 200 μM at the time of transfection.

[4] = tested on: Human 293 cells; test: Induction of apoptosis by Apo-2 transfection, morphology and DNA fragmentation; type: cell-based; details: 24 hours after transfection; morphology, DNA fragmentation; FIGS. 11A and 11B
From the text: as §1

[5] = tested on: NF-κB; test: NF-κB activation in HeLa cells transfected with receptor plasmids (electrophoretic mobility shift assay); type: cell-based, human; details: harvested 24 hours after transfection, FIG. 12A
Method: HeLa cells were transfected with pRK5 expression plasmids encoding full-length native sequence Apo-2, DR4 or Apo-3 and harvested 24 hours after transfection. […] Immunol., 153:5274-5284 (1994)], alone or together with a 50-fold excess of unlabelled probe, or with an irrelevant ^32P-labelled synthetic oligonucleotide […] NO: 13). In some samples, antibody to p65/RelA subunits of NF-κB (1 μg/ml; Santa Cruz Biotechnology) was added. DNA binding was analyzed by an electrophoretic mobility shift assay as described by Hsu et al., supra; Marsters et al., supra, and MacKay et al., supra.

[6] = tested on: Apo-2L; test: Co-precipitation assay of Apo-2 ECD-Flag with poly-histidine-tagged Apo-2L; type: binding; details: Apo-2 ECD-Flag supernatant with 5 μg poly-histidine-tagged soluble Apo-2L; FIG. 10
Method: To determine whether Apo-2 and Apo-2L interact or associate with each other, supernatants from mock-transfected 293 cells or from 293 cells transfected with Apo-2 ECD-Flag (described in Example 6 above) (5 ml) were incubated with 5 μg poly-histidine-tagged soluble Apo-2L [Pitti et al., supra] for 30 minutes at room temperature and then analyzed for complex formation by a co-precipitation assay.
The samples were subjected to immunoprecipitation using 25 μl anti-Flag conjugated agarose beads (Sigma) or Nickel-conjugated agarose beads (Qiagen). After a 1.5 hour incubation at 4° C., the beads were spun down and washed four times in phosphate buffered saline (PBS). By using anti-Flag agarose, the Apo-2L was precipitated through the Flag-tagged Apo-2 ECD; by using Nickel-agarose, the Apo-2 ECD was precipitated through the His-tagged Apo-2L. The precipitated proteins were released by boiling the beads for 5 minutes in SDS-PAGE buffer, resolved by electrophoresis on 12% polyacrylamide gels, and then detected by immunoblot with anti-Apo-2L or anti-Flag antibody (2 μg/ml) as described in Marsters et al., J. Biol. Chem., (1997).

[7] = biological target: T1, Fas/Apo-1 ligand (Homo sapiens, UniProt P48023); test: BIACORE analysis of Apo-2 ECD; type: binding
T1 construct: purchased Alexis Biochemicals
T1 sequence (P48023 103-281 limits assumed): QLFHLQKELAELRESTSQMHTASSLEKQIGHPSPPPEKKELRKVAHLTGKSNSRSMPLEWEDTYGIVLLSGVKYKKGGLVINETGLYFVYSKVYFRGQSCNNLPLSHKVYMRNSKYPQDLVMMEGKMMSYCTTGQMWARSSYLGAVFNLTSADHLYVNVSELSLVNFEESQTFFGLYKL
Method: (§2) The binding interaction was further analyzed by purifying Apo-2 ECD from the transfected 293 cell supernatants with anti-Flag beads (see Example 6) and then analyzing the samples on a BIACORE™ instrument. The BIACORE™ analysis indicated a dissociation constant (Kd) of about 1 nM.

[8] = biological target: TNF-alpha (Homo sapiens, UniProt P01375); test: BIACORE analysis of Apo-2 ECD; type: binding
Method: as §2

[9] = biological target: T2, lymphotoxin-alpha (Homo sapiens, UniProt P01374); test: BIACORE analysis of Apo-2 ECD; type: binding
T2 sequence (P01374 35-205): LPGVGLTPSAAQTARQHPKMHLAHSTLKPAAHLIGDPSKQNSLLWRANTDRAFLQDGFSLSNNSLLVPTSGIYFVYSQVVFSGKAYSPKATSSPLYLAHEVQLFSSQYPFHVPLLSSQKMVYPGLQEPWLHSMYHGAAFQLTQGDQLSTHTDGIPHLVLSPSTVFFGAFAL
Method: as §2

[10] = tested on: HeLa cells; test: Effect of preincubation with inhibitors on Apo-2L-induced apoptosis in HeLa cells (FACS); type: cell-based, human; details: Apo-2L 1 μg/ml, 5 hour incubation, FIG. 12C
Method: The effects of a NF-κB inhibitor, ALLN (N-acetyl-Leu-Leu-norleucinal) and a […] inhibitor, cyclohexamide, were also tested. The HeLa cells (plated in 6-well dishes) were preincubated with PBS buffer, ALLN (Calbiochem) (40 μg/ml) or cyclohexamide (Sigma) (50 μg/ml) for 1 hour before addition of Apo-2L (1 μg/ml). After a 5 hour incubation, apoptosis was analyzed by FACS (see FIG. 12C).

Chain of Apo-2L (P50591 39-281 limits assumed): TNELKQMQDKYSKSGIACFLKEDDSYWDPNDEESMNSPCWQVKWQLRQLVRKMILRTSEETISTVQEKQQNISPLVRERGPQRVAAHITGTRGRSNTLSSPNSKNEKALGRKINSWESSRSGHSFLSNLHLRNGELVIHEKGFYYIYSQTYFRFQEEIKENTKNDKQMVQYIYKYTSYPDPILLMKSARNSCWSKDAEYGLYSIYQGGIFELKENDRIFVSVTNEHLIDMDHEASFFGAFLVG
Chain of Apo-2L (O14763 56-184 partner limits assumed): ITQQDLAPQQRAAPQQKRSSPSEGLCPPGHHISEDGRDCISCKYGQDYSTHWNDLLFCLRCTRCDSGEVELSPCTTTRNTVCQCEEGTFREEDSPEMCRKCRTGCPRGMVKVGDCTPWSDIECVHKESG
Chain of TNF-alpha (P01375 77-233 limits assumed): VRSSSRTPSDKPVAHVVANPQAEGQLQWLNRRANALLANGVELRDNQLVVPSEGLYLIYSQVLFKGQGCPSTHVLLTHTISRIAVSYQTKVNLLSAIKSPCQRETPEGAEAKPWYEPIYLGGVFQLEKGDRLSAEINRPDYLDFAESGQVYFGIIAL

Molecule: Apo-2L: Apo-2 ligand (also referred to as TRAIL), TNF family cytokine; soluble form as in Pitti et al.
apoptosis in HeLa cells ([1]; soluble Apo-2L 0.5 μ/ml, 5 hour incubation, FACS, FIG. 11D): marked apoptosis | NF-κB activation in treated HeLa cells [2]: significant NF-κB activation

Molecule: COC(=O)CC[C@H](NC(=O)[C@H](CC(=O)OC)NC(=O)OCc1ccccc1)C(=O)N[C@H](C(=O)N[C@@H](CC(=O)OC)C(=O)CF)C(C)C [DEVD-fmk]
apoptosis induction by Apo-2 [3]: blocked

Molecule: Apo-2: full-length native sequence human Apo-2, 411 amino acid type I transmembrane protein with death domain; expressed by transfection
apoptosis of transfected 293 cells [4]: marked apoptosis | NF-κB activation upon transfection [5]: significant NF-κB activation

binding to Fas/Apo-1 ligand [7]: not capable of binding | binding to TNF-alpha [8]: not capable of binding
Molecule: Apo-2 ECD: soluble Apo-2 extracellular domain (amino acid residues 1-184) fused to a C-terminal Flag epitope tag
complex formation with Apo-2L [6]: can associate with each other | binding to lymphotoxin-alpha [9]: not capable of binding | blocking of Apo-2L action (apoptosis) ([1]; Apo-2 ECD 5 μg/ml with anti-Flag antibody 1 μg/ml, pre-incubated 1 hour with Apo-2L 0.5 μ/ml, HeLa cells, FIG. 11D): capable of blocking Apo-2L action

IC50 ([1]; dose-response analysis of inhibition of Apo-2L-induced apoptosis, HeLa cells, FIG. 11E, read-out: half-maximal inhibition): ~300 pM
Molecule: Apo-2 ECD immunoadhesin: Apo-2 ECD (amino acids 1-184) fused to the hinge and Fc region of human immunoglobulin G1 heavy chain

Molecule: DR4: TNF receptor family member with cytoplasmic death domain, receptor for Apo-2 ligand; expressed by transfection [reference compound]
NF-κB activation upon transfection [5]: significant NF-κB activation

Molecule: C[C@@H]1C[C@@H]([C@H](O)CC2CC(=O)NC(=O)C2)C(=O)[C@@H](C)C1 [cyclohexamide]
level of Apo-2L-induced apoptosis ([10]; HeLa cells preincubated 1 hour with cyclohexamide 50 μg/ml): increased

Molecule: CCCC[C@@H](C=O)NC(=O)[C@H](CC(C)C)NC(=O)[C@H](CC(C)C)NC(C)=O [ALLN, N-acetyl-Leu-Leu-norleucinal] (Ac-Leu-Leu-[Nle]-aldehyde)
level of Apo-2L-induced apoptosis ([10]; HeLa cells preincubated 1 hour with ALLN 40 μg/ml): increased

Molecule: COC(=O)C[C@H](NC(=O)[C@H](C)NC(=O)[C@@H](NC(=O)OCc1ccccc1)C(C)C)C(=O)CF [z-VAD-fmk] (Cbz-Val-Ala-Asp(OMe)-CH2F)
apoptosis induction by Apo-2 [3]: blocked

Reference: patent US20020161202A1, “Apo-2DcR” (Genentech, Inc., priority 1997, published 2002)
